As a reminder, the bioavailability is dose-corrected exposure relative to a reference, in per cent.

The values that follow come from article PMC3326647, “Single Enantiomer of YK-4-279 Demonstrates Specificity in Targeting the Oncogene EWS-FLI1” (Oncotarget, 2012).

Data set [1] concerns TC32 cells. As to the kind of experiment: Cellular proliferation (WST) assay, TC32. In kind it is cell-based. The conditions noted are these: Homo sapiens, TC-32, 72 h; TC32, ESFT (Type 1); read-out: IC50 at 3 days (+/− SEM). The protocol: (§1) TC32, TC71, RDES, MMH-ES-1, STA-ET 7.2, A4573, and PC3 cells were grown in RPMI with 10% FBS and 1% HEPES. SKES cells were grown in McCoy's 5A medium with 15% FBS. MCF7, MDA-MB-231, PANC1, and ASPC1 cells were grown in colorless DMEM with 10% FBS. Cells were grown at a plating density of 5,000 – 15,000 cells/well, depending on cell line, in a 96-well plate. Small molecule or vehicle alone (DMSO) were added to cells in appropriate growth media the day after plating. After three days, viable cells were quantified using WST (Roche) according to the manufacturer's protocol. IC50 values were calculated by sigmoidal dose-response curve fit using Prism Graphpad 4.0.

The test system of data set [2] is STA-ET 7.2 cells. As to the kind of experiment: Cellular proliferation (WST) assay, STA-ET 7.2. In kind it is cell-based. Conditions: 72 h; STA-ET 7.2, ESFT (Type 2); read-out: IC50 at 3 days (+/− SEM). The protocol: as §1
The subject of data set [3] is MCF7 cells. Briefly: Cellular proliferation (WST) assay, MCF7. In kind it is cell-based. Conditions: Homo sapiens, 72 h; MCF7, breast; read-out: IC50 at 3 days (+/− SEM). The protocol:
as §1

Data set [4] has as its system PANC1 cells. Briefly: Cellular proliferation (WST) assay, PANC1. In kind it is cell-based. The conditions noted are these: Homo sapiens, PANC-1, 72 h; PANC1, pancreatic; read-out: IC50 at 3 days (+/− SEM). The protocol: as §1
Data set [5] relates to EWS-FLI1 and RHA. Briefly: ELISA of binding between EWS-FLI1 and RHA. The protocol: EWS-FLI1 was used to coat the surface of a 96 well plate (MaxiSorb) at a concentration of 150ng/well in 100μL buffer containing 20mM Tris, 500mM sodium chloride, and 1M imidazole. Following overnight incubation, the plate was blocked with 4% BSA in PBS and washed with PBS + 0.1% Tween-20. Small molecules were added at concentrations of 1μM, 3μM, 10μM, and 30μM, followed by RHA (300ng/well) and allowed to incubate overnight. Following washing, incubation with RHA antibody (Everest) and anti-goat secondary, protein binding was detected using a TMB Peroxidase EIA Substrate Kit (Bio-Rad) per the manufacturer's instructions.

The test system of data set [6] is Cyclin D1b/D1a mRNA level in A673i cells. As to the kind of experiment: Quantitative RT-PCR of Cyclin D1b/D1a mRNA in A673i cells. The conditions noted are these: 1μM, 8 hours. In kind it is cell-based. The protocol:
A673i cells were treated with 1μM small molecule for 8 hours. Positive control cells were treated with tetracycline for 72 hours to knock down expression of EWS-FLI1. Total RNA was extracted using an RNeasy Micro Kit (Qiagen) and reverse transcribed using the Transcriptor First Strand cDNA Synthesis Kit (Roche) per the manufacturer's instructions. qPCR was performed using an Eppendorf Mastercycler Realplex with FastStart Universal SYBR Green Master with ROX (Roche) with primers for 18S, CyclinD1a, and CyclinD1b. Data were analyzed for expression relative to 18S using the comparative Ct method. Data from four separate experiments performed in duplicate were averaged.

Data set [7] in a line: Pharmacokinetic analysis in rats. In kind it is in vivo. The conditions noted are these: both sexes, Sprague-Dawley, plasma, po; rat, gavage administration. The protocol: (§2) All pharmacokinetic studies were performed using Sprague-Dawley rats. Nine rats per gender were assigned to nine dose groups, which received either a single IV injection of YK-4-279, (S)-YK-4-279, or (R)-YK-4-279 at a target dose of 25 mg/kg, or a single gavage administration of small molecule at a target dose level of 25 or 50 mg/kg. Plasma was obtained from the rats and samples were processed by liquid extraction followed by analysis using liquid chromatography with mass spectrometry (LC/MS). Average urine concentrations were measured at intervals from 0-4, 4-8, and 8-12 hours after dosing. 18 Fox Chase SCID Beige mice were injected with A4573 cells and received six doses of (S)-YK-4-279 at 75 mg/kg to determine concentration of small molecule in the tumors.

Data set [8] relates to MMH-ES-1 cells. Briefly: Cellular proliferation (WST) assay, MMH-ES-1. In kind it is cell-based. The conditions noted are these: 72 h; MMH-ES-1, ESFT (Type 2); read-out: IC50 at 3 days (+/− SEM). The protocol:
as §1

Data set [9] relates to ASPC1 cells. Briefly: Cellular proliferation (WST) assay, ASPC1. In kind it is cell-based. Conditions: Homo sapiens, 72 h; ASPC1, pancreatic; read-out: IC50 at 3 days (+/− SEM). As to the method: as §1
The test system of data set [10] is caspase-3 activity in A4573 ESFT cells. As to the kind of experiment: Caspase-3 activation dose titration in A4573 cells. In kind it is cell-based. Conditions: between 0.3 and 1μM, 18 hours. As to the method: (§3) Cells were plated at 100,000 – 200,000 cells/well, depending on cell line, in a 12 well plate. Small molecule was added the following day. 18 hours later, lysates were collected using the manufacturer's protocol for the AC-DEVD-AMC substrate (BD Bioscience Pharmingen). Caspase-3 substrate was incubated for 2 hours with protein lysate and fluorescence from cleaved substrate was measured in a fluorimeter. Fluorescent signal was then normalized to protein lysate via BCA assay.

The nature of data set [11]: Evaluation of racemization in A4573 ESFT xenograft tumors. In kind it is in vivo. Conditions: A4573 tumor-bearing SCID mice, IP (75 mg/kg), tumors resected two hours following dosing. The protocol:
as §2

Data set [12] has as its system caspase-3 activity in ESFT cells (TC32, RDES, SKES, A4573, MMH-ES-1, STA-ET 7.2). Briefly: Caspase-3 activity in ESFT cells. In kind it is cell-based. Conditions: 10μM, 18 hours. As to the method:
as §3

Data set [13] concerns PANC1 cells. The conditions noted are these: PANC1 from a different source, previously reported; cited from earlier work.
Data set [14] concerns non-transformed cell lines. More on the design: method as in PMID 19584866. Conditions: racemic; cited from earlier work.
Details of data set [15]: method as in PMID 19584866. The conditions noted are these: xenograft mice, 75 mg per kg body weight; cited from earlier work.
Data set [16] relates to MDA-MB-231 cells. Conditions: MDA-MB-231 from a different source, previously reported; cited from earlier work.
Where [17] appears, read: as little as 1μM small molecule.

Read-outs that look alike come from different tables or passages of the source. Bounds are passed on as bounds.

Consider `COc1ccc(C(=O)C[C@]2(O)C(=O)Nc3c(Cl)ccc(Cl)c32)cc1` [(R)-YK-4-279], for which the IC50 in data set [1] is 16.3 µM; in [2], 21.2 µM; in [3], over 30 µM; in data set [4], 24.9 µM; in data set [8], 26 µM; in data set [9] it was over 30 µM. In addition, in data set [5] (30μM), the “inhibition of EWS-FLI1/RHA binding” value is “does not inhibit the binding”. In addition, in data set [6], the “D1b/D1a mRNA ratio” value is given as “maintained a D1b/D1a ratio equivalent to the vehicle treated cells”. In data set [7], this compound had a bioavailability of 8 to 15%.

In the case of `COc1ccc(C(=O)C[C@@]2(O)C(=O)Nc3c(Cl)ccc(Cl)c32)cc1` [(S)-YK-4-279], the “slope (m), rate of caspase activity increase” value in data set [10] is 7.23 ± 0.32. For the same compound, the “Percent of (S)-YK-4-279 present in tumor” value in data set [11] is given as 100%. Further, the IC50 in [1] stood at 0.28 µM; in data set [2] it was 0.31 µM; in data set [3], 19.5 µM; in [4] it was 1.69 µM; in data set [8], 0.34 µM; in data set [9], 8.16 µM. Further, the “caspase-3 activation, average across the panel of six ESFT cell lines” value in data set [12] is given as 10.3 fold. Besides, in [5] (setting [17]), the “inhibition of EWS-FLI1/RHA binding” value is recorded as “able to inhibit the protein-protein interaction”. Moreover, the “D1b/D1a mRNA ratio” value in [6] is on record as “reduced this ratio to a level equivalent to the EWS-FLI1 reduction”. Further, the “more potent at the D1b/D1a reduction than racemic” value in data set [6] was “approximately 35%”. The bioavailability in [7] is 2 to 6%.

As to `COc1ccc(C(=O)CC2(O)C(=O)Nc3c(Cl)ccc(Cl)c32)cc1` (stereo not drawn) [YK-4-279], the IC50 in data set [13] is over 20 µM; in data set [14], over 30 µM; in data set [1], 0.94 µM; in [2] it was 0.6 µM; in data set [3] it was 22.8 µM; in [4], 1.51 µM. Also, the IC50 in data set [16] is over 20 µM; in [8], 0.94 µM; in data set [9] it was 14.3 µM. Also, the “slope (m), rate of caspase activity increase” value in data set [10] was determined as 4.43 ± 0.66. The toxicity result in data set [15] is “no toxicity”. For the same compound, the “caspase-3 activation, average across the panel of six ESFT cell lines” value in data set [12] was determined as 8.8 fold. The “inhibition of EWS-FLI1/RHA binding” value in data set [5] (setting [17]) is on record as “able to inhibit the protein-protein interaction”. Moreover, in data set [6], the “D1b/D1a mRNA ratio” value was “reduction in the D1b/D1a levels”.
